The results in this text go back to patent publication EP1582213A1, “Use of adenosine for treating surgery related ischemia” (Ludwig-Maximilians-Universität München, priority 2004, dated 2005).

Common to all, as to assay type: in vivo, human
A short description of assay [1]: Lactate in serum for monitoring the energetic situation after partial liver resection. On the procedure: (§1) Adenosine group: The members of this group were experiencing liver trauma during resection and additional organ ischemia during resection (Pringle-manoeuvre, duration 30 to 45 minutes). Liver protection was realised by intermitting central venous administration of adenosine (infusion duration 10 minutes, 120 to 150 µg/kg body weight/min) 20 minutes prior to resection/ischemia, and a new continuous infusion immediately after reperfusion (infusion duration 70 to 90 minutes, 120 to 150 µg/kg body weight/min).
(§2) The following tests were carried out in order to assess the post-operational organ functions: • 1. Quick test • 2. Determination of the bilirubin • 3. Lactate for monitoring the energetic situation
(§3) Any of the results obtained by applying these tests on blood samples taken from the members of the various study groups, are depicted in table 1: Table 1:
Also using lactate as a parameter for cytoprotective effects confirms the significant effectiveness of adenosine administration. The lactate concentration in serum is regarded as a marker for the extent of anaerobic metabolism due to lack of oxygen caused by a cellular lack of energy. The lactate concentrations in the serum are highest post-procedure in group 2, where surgical liver trauma and ischemia/reperfusion was combined.

A further assay has as its system interleukin 6. The experiment in a line: Interleukin 6 titre in blood of patients before and after liver resection (Fig. 2). The settings on record: post-procedure increase, first and second day after resection; adenosine group vs. control groups; three to five patients per group. On the procedure: as §1
(§4) To assess protection conferred by adenosine on the anti-inflammation branch, both interleukin 6 and granulocyte functions were determined, whereby the results are presented in Figs. 2 and 3.
As depicted in Fig. 2, the level of interleukin 6 increased in any of the four groups, whereby each group consisted of three to five patients. Such increase is typically observed as a post-procedure reaction. The serum titres of the pro-inflammatory cytokine interleukin 6 can increase by three magnitudes compared to the pre-procedure titre and were highest in control group 2, where both surgical liver trauma and ischemia/reperfusion were combined.

Assay [2] is described as follows: Quick test (prothrombin time) on blood samples of patients after partial liver resection. As to the method: as §1, §2, §3
The quick test serves as a parameter for the assessment of the protein synthesis performance of the liver after the procedure.

Assay [3] is described as follows: Determination of bilirubin in blood samples of patients after partial liver resection. On the procedure:
as §1, §2
Any of the results obtained by applying these tests on blood samples taken from the members of the various study groups, are depicted in table 1: Table 1: […]

Assay [4] deals with beta 2 adhesion molecules on circulating granulocytes. The assay is described as follows: Granulocyte function: expression of beta 2-integrins on circulating granulocytes, FACScan with FITC marked anti-CD18 antibody (Fig. 3). The settings on record: observed immediately after ischemia and reperfusion; adenosine administered prior and after ischemia; vs. control groups 1 and 2. As to the method:
as §1, §4
The further parameter for anti-inflammation, i. e. granulocyte function, was measured as the inhibition of potential cytotoxic functions of white blood cells due to liver ischemia which was measured using the expression of beta 2-intergrins through the monoclonal anti-CD18 antibody. More particularly, the expression was determined prior to ischemia and 3, 30 and 120 minutes after reperfusion. The cells were analysed using a FACScan and a FITC marked anti-CD18 antibody. […] As indicated in Fig. 3 $ p < 0.05 vs. control group 1, # p < 0.05 vs. control group 2.

Where [5] appears, read: first postoperative day, adenosine 120 to 150 µg/kg body weight/min prior to resection/ischemia and after reperfusion, mean.
[6] abbreviates: second postoperative day, same regimen, mean.

The structures appear in SMILES notation.

`Nc1ncnc2c1ncn2[C@@H]1O[C@H](CO)[C@@H](O)[C@H]1O` [Adenosine, adenosine]: in assay [1] (setting [5]), the Lactate-1 is reported as 1,8 mmo I/I. In addition, the “initial increase in the lactate on the first post-procedure day” value in assay [1] (intravenous systemic administration of adenosine prior and after resection and ischemia, compared with control group 2) is “less pronounced”. The Lactat pre in assay [1] (preoperative baseline, lactate-concentration, mean of adenosine group, norm <2) is <1,0 mmo I/I. In addition, the Lactate-2 in assay [1] (setting [6]) is 1,2 mmo I/I. For the same molecule, the “IL 6 titre” value with interleukin 6 is reported as “significantly less pronounced”. The “value of the quick test on the first and second day after surgery (liver synthesis performance)” value in assay [2] (adenosine group compared with the control groups) is reported as “higher in the adenosine group”. The “PT(Quick)1” value in assay [2] (first postoperative day, partial liver resection with Pringle-manoeuvre 30 to 45 minutes, adenosine central venous 120 to 150 µg/kg body weight/min, 10 minutes given 20 minutes prior to resection/ischemia and 70 to 90 minutes after reperfusion, mean) is given as “#*66%”. The “PT(Quick)pre” value in assay [2] (preoperative baseline, Prothrombin Time expressed as Quick-values, mean of adenosine group, norm 70-100 %) is 100%. Besides, the “PT(Quick)2” value in assay [2] (setting [6]) was 72%. Moreover, the bilirubin concentration result in assay [3] (adenosine group, post-procedure vs. pre-procedure values) is on record as “remained unchanged compared to pre- procedure values”. Moreover, the bili-1 entry in assay [3] (setting [5]) is listed as “#0,6 mg/dI”. Moreover, in assay [3] (preoperative baseline, bilirubin, mean of adenosine group, norm <1,0), the bili pre is recorded as 0,4 mg/dI. For the same molecule, the bili-2 entry in assay [3] (setting [6]) is reported as “#0,5 mg/dI”. For the same molecule, the “activation of granulocytes circulating in the blood” value in assay [4] is reported as “effectively avoided”.
